Data reported in ChEMBL document CHEMBL5385942, “C3-Symmetric ligands in drug design: An overview of the challenges and opportunities ahead” (Bioorg Med Chem Lett, 2024).
Values joined by “and” are separate entries in the source; they are usually repeats but may differ in a detail not shown here. Equal entries are not always repeated. Each block holds one compound with its values, some of them ahead of it. Active and inactive are the calls of the source. No cut-off for these calls is given here.

Tests used:
LNCaP = assay: Antiproliferative activity against human LNCaP cells assessed as inhibition of cell growth incubated for 24 hrs by SRB assay; assay type: functional, cell-based
A549 = assay: Antiproliferative activity against human A549 cells assessed as inhibition of cell growth incubated for 24 hrs by SRB assay; assay type: functional, cell-based; details: A549, 24 h
T47D = assay: Antiproliferative activity against human T47D cells assessed as inhibition of cell growth incubated for 24 hrs by SRB assay; assay type: functional, cell-based
[1] = Antiproliferative activity against human SW707 cells assessed as inhibition of cell growth incubated for 24 hrs by SRB assay; assay type: functional, cell-based; details: SW707, 24 h
Jurkat = assay: Antiproliferative activity against human Jurkat cells assessed as inhibition of cell growth incubated for 24 hrs by SRB assay; assay type: functional, cell-based
MCF7 = assay: Antiproliferative activity against human MCF7 cells assessed as inhibition of cell growth incubated for 24 hrs by SRB assay; assay type: functional, cell-based; details: MCF7, 24 h
MDA-MB-468 = assay: Antiproliferative activity against human MDA-MB-468 cells assessed as inhibition of cell growth; assay type: functional, cell-based
[2] = Growth inhibition of human NCI cells; assay type: functional
Bacillus subtilis = assay: Antimicrobial activity against Bacillus subtilis MTCC 441 assessed as zone of inhibition by […]; assay type: functional
Micrococcus luteus = assay: Antimicrobial activity against Micrococcus luteus ATCC 9341 assessed as zone of inhibition by […]; assay type: functional
Staphylococcus aureus = assay: Antimicrobial activity against Staphylococcus aureus MTCC 96 assessed as zone of inhibition by […]; assay type: functional
Human betaherpesvirus 5 = assay: Antiviral activity against HCMV infected in HFF cells assessed as reduction in viral replication; assay type: functional, organism-based; details: Human betaherpesvirus 5, HFF
Quadruplex DNA [3] = assay: Stabilization of human G4 quadruplex telomeric22 DNA assessed as change in temperature at 10 uM by FRET assay; assay type: nucleic-acid assay
Quadruplex DNA [4] = assay: Stabilization of human G4 quadruplex telomeric22 DNA assessed as change in temperature at 5 uM by FRET assay; assay type: nucleic-acid assay
Quadruplex DNA [5] = assay: Stabilization of human G4 quadruplex telomeric22 DNA assessed as change in temperature at 1 uM by FRET assay; assay type: nucleic-acid assay
Escherichia coli = assay: Antimicrobial activity against Escherichia coli ATCC 25922 assessed as zone of inhibition by […]; assay type: functional
Pseudomonas aeruginosa = assay: Antimicrobial activity against Pseudomonas aeruginosa MTCC 741 assessed as zone of inhibition by […]; assay type: functional, organism-based
HeLa = assay: Cytotoxicity against human HeLa cells assessed as inhibition of cell growth incubated for 24 hrs by MTT assay; assay type: functional, cell-based
HepG2 = assay: Cytotoxicity against human HepG2 cells assessed as inhibition of cell growth incubated for 24 to 48 hrs by MTT assay; assay type: functional, cell-based

Compound: ClCCCN1CCN(c2nc(N3CCN(CCCl)CC3)nc(N3CCN(CCCl)CC3)n2)CC1
IC50 (LNCaP): 620 nM | IC50 (A549): 620 nM | IC50 (T47D): 620 nM | IC50 [1]: 620 nM | IC50 (Jurkat): 620 nM | IC50 (MCF7): 18.7 µM

IC50 (MDA-MB-468): 216 µM
Compound: c1ccc(Sc2nc(Sc3ccccn3)nc(Sc3ccccn3)n2)nc1
GI50 [2]: 3.17 µM

Compound: O=C(/C=C/c1ccc(Cl)cc1Cl)c1ccc(Oc2nc(Oc3ccc(C(=O)/C=C/c4ccc(Cl)cc4Cl)cc3)nc(Oc3ccc(C(=O)/C=C/c4ccc(Cl)cc4Cl)cc3)n2)cc1
inhibition zone (IZ) (Bacillus subtilis): 7 mm and 8 mm | inhibition zone (IZ) (Micrococcus luteus): 7 mm and 10 mm | inhibition zone (IZ) (Staphylococcus aureus): 10 mm and 7 mm

Compound: Cc1ccc(C2CC(c3ccc(Oc4nc(Oc5ccc(C6=NN(C(N)=S)C(c7ccc(C)cc7)C6)cc5)nc(Oc5ccc(C6=NN(C(N)=S)C(c7ccc(C)cc7)C6)cc5)n4)cc3)=NN2C(N)=S)cc1 (configuration not stated)
inhibition zone (IZ) (Bacillus subtilis): 9 mm | inhibition zone (IZ) (Micrococcus luteus): 20 mm | inhibition zone (IZ) (Staphylococcus aureus): 11 mm

Compound: C[C@@H]1CCC2[C@@H](C)[C@H](OC(=O)CCC(=O)OCC(COC(=O)CCC(=O)O[C@@H]3O[C@@H]4O[C@]5(C)CC[C@H]6[C@H](C)CCC([C@H]3C)[C@@]46OO5)COC(=O)CCC(=O)O[C@@H]3O[C@@H]4O[C@]5(C)CC[C@H]6[C@H](C)CCC([C@H]3C)[C@@]46OO5)O[C@@H]3O[C@]4(C)CC[C@@H]1[C@@]23OO4 (some centres not stated)
EC50 (Human betaherpesvirus 5): 530 nM

Compound: NC(=S)N1N=C(c2ccc(Oc3nc(Oc4ccc(C5=NN(C(N)=S)C(c6ccc(Cl)cc6)C5)cc4)nc(Oc4ccc(C5=NN(C(N)=S)C(c6ccc(Cl)cc6)C5)cc4)n3)cc2)CC1c1ccc(Cl)cc1 (configuration not stated)
inhibition zone (IZ) (Bacillus subtilis): 10 mm | inhibition zone (IZ) (Micrococcus luteus): 18 mm | inhibition zone (IZ) (Staphylococcus aureus): 11 mm

Compound: Cc1ccc(/C=C/C(=O)c2ccc(Oc3nc(Oc4ccc(C(=O)/C=C/c5ccc(C)cc5)cc4)nc(Oc4ccc(C(=O)/C=C/c5ccc(C)cc5)cc4)n3)cc2)cc1
inhibition zone (IZ) (Bacillus subtilis): 10 mm | inhibition zone (IZ) (Micrococcus luteus): 11 mm | inhibition zone (IZ) (Staphylococcus aureus): 7 mm

ΔTm (Quadruplex DNA [3]): 3.3 °C | ΔTm (Quadruplex DNA [4]): 4.9 °C | ΔTm (Quadruplex DNA [5]): 2.8 °C
Compound: CCN(CC)CCn1c2ccccc2c2cc(-c3cc(-c4ccc5c(c4)c4ccccc4n5CCN(CC)CC)cc(-c4ccc5c(c4)c4ccccc4n5CCN(CC)CC)c3)ccc21

Compound: O=C(/C=C/c1ccc([N+](=O)[O-])cc1)c1ccc(Oc2nc(Oc3ccc(C(=O)/C=C/c4ccc([N+](=O)[O-])cc4)cc3)nc(Oc3ccc(C(=O)/C=C/c4ccc([N+](=O)[O-])cc4)cc3)n2)cc1
inhibition zone (IZ) (Bacillus subtilis): 7 mm | inhibition zone (IZ) (Micrococcus luteus): 7 mm | inhibition zone (IZ) (Escherichia coli): 6 mm | inhibition zone (IZ) (Pseudomonas aeruginosa): 7 mm

Compound: O=C(/C=C/c1ccccc1)c1ccc(Oc2nc(Oc3ccc(C(=O)/C=C/c4ccccc4)cc3)nc(Oc3ccc(C(=O)/C=C/c4ccccc4)cc3)n2)cc1
inhibition zone (IZ) (Bacillus subtilis): 7 mm | inhibition zone (IZ) (Micrococcus luteus): 7 mm | inhibition zone (IZ) (Escherichia coli): 6 mm

Compound: c1ccc(Nc2nc(Nc3ccccn3)nc(Nc3ccccn3)n2)nc1
GI50 [2]: 49.8 µM

Compound: O=C1c2cccc3cccc(c23)C(=O)N1CCCn1c(CCN(CCc2nc3ccccc3n2CCCN2C(=O)c3cccc4cccc(c34)C2=O)CCc2nc3ccccc3n2CCCN2C(=O)c3cccc4cccc(c34)C2=O)nc2ccccc21
IC50 (HeLa): 150 µM

Compound: NC(=S)N1N=C(c2ccc(Oc3nc(Oc4ccc(C5=NN(C(N)=S)C(c6ccccc6)C5)cc4)nc(Oc4ccc(C5=NN(C(N)=S)C(c6ccccc6)C5)cc4)n3)cc2)CC1c1ccccc1 (configuration not stated)
inhibition zone (IZ) (Bacillus subtilis): 11 mm | inhibition zone (IZ) (Micrococcus luteus): 15 mm | inhibition zone (IZ) (Staphylococcus aureus): 13 mm

Compound: c1ccc(Sc2nc(Sc3ccccc3)nc(Sc3ccccc3)n2)cc1
GI50 [2]: > 100 µM

Compound: NC(=S)N1N=C(c2ccc(Oc3nc(Oc4ccc(C5=NN(C(N)=S)C(c6cccc([N+](=O)[O-])c6)C5)cc4)nc(Oc4ccc(C5=NN(C(N)=S)C(c6cccc([N+](=O)[O-])c6)C5)cc4)n3)cc2)CC1c1cccc([N+](=O)[O-])c1 (configuration not stated)
inhibition zone (IZ) (Bacillus subtilis): 13 mm | inhibition zone (IZ) (Micrococcus luteus): 16 mm | inhibition zone (IZ) (Staphylococcus aureus): 10 mm

Compound: O=C(N/N=C\c1ccc(N(CCCl)CCCl)cc1)c1cc(C(=O)N/N=C\c2ccc(N(CCCl)CCCl)cc2)cc(C(=O)N/N=C/c2ccc(N(CCCl)CCCl)cc2)c1
IC50 (HepG2): 25 µmol

Activity (Quadruplex DNA [3]): inactive | Activity (Quadruplex DNA [4]): inactive | Activity (Quadruplex DNA [5]): inactive
Compound: c1ccc2c(c1)c1cc(-c3cc(-c4ccc5c(c4)c4ccccc4n5CCN4CCOCC4)cc(-c4ccc5c(c4)c4ccccc4n5CCN4CCOCC4)c3)ccc1n2CCN1CCOCC1

ΔTm (Quadruplex DNA [3]): 2.6 °C | ΔTm (Quadruplex DNA [4]): 4 °C | ΔTm (Quadruplex DNA [5]): 1.1 °C
Compound: c1ccc2c(c1)[nH]c1ccc(-c3cc(-c4ccc5[nH]c6ccccc6c5c4)cc(-c4ccc5[nH]c6ccccc6c5c4)c3)cc12
